According to US8603537B2, “Prasugrel containing quickly released stable oral pharmaceutical compositions” (Egis Pharmaceuticals PLC, priority 2012, dated 2013):
Structures can show the parent of a compound that is named as a salt.

Tests used:
[1] = EP 2415 774; cited from earlier work
platelet aggregation = conditions: administered in the same dose, EP 1 298 132 B1; cited from earlier work
[2] = Solubility of prasugrel base and prasugrel HCl at different pH values; assay type: physicochemical
From the text: According to the examples of WO 2008/073759 prasugrel containing pharmaceutical compositions are stabilized by storing the tablets in air-and waterproof packaging. According to WO 2006/135605 the decomposition of prasugrel containing compositions can be reduced in air- and moisture-proof blister filled with inert gas. […] This fact is substantiated by the following Table. It can be seen from the above Table that the solubility of the hydrochloric acid salt of prasugrel is much higher than that of the prasugrel base even in the pH range between 4.5 and 6.8

[3] = Storage stability of prasugrel base, related substances by HPLC; assay type: physicochemical
From the text: Contrary to the teaching of WO 2011/098536a stable product of appropriate bioavailability is obtained.

[4] = 25 ± 2° C. 60 ± 5% RH, 2 months
[5] = 25 ± 2° C. 60 ± 5% RH, 3 months
[6] = 25 ± 2° C. 60 ± 5% RH, 6 months
[7] = 40 ± 2° C. 75 ± 5% RH, 2 months
[8] = 40 ± 2° C. 75 ± 5% RH, 3 months
[9] = 40 ± 2° C. 75 ± 5% RH, 6 months

CC(=O)Oc1cc2c(s1)CCN(C(C(=O)C1CC1)c1ccccc1F)C2 (centres unmarked) [hydrogen bromide salt]
Solubility in 0.1N hydrochloric acid compared with the hydrochloric acid salt [1]: more readily soluble

CC(=O)Oc1cc2c(s1)CCN(C(C(=O)C1CC1)c1ccccc1F)C2 (centres unmarked) [prasugrel HCl]
Platelet aggregation inhibitory effect compared with the base (platelet aggregation): almost twice higher | Solubility ([2]; pH 1): 7.8 g/100 ml | Solubility ([2]; pH 4.5): 0.032 g/100 ml | Solubility ([2]; pH 6.8): 0.007 g/100 ml

CC(=O)Oc1cc2c(s1)CCN(C(C(=O)C1CC1)c1ccccc1F)C2 (centres unmarked) [prasugrel base, 5-/2-cyclopropyl-1-(2-fluoro-phenyl)-2-oxoethyl/-4,5,6,7-tetrahydrothieno/3.2-c/-pyridine-2-yl-acetate]
Solubility ([2]; Water): 0.0009 g/100 ml | Solubility ([2]; pH 1): 2.8 g/100 ml | Solubility ([2]; pH 4.5): 0.0035 g/100 ml | Solubility ([2]; pH 6.8): 0.001 g/100 ml | Related substances by HPLC: Any identified impurity, each ([3]; 25 ± 2° C. 60 ± 5% RH, 1 month): 0.05% | Related substances by HPLC: Any unidentified impurity ([3]; 25 ± 2° C. 60 ± 5% RH, 1 month): <0.05% | Related substances by HPLC: Dezacetyl impurity ([3]; 25 ± 2° C. 60 ± 5% RH, 1 month): <0.05% | Related substances by HPLC: Sum of impurities ([3]; 25 ± 2° C. 60 ± 5% RH, 1 month): 0.05% | Related substances by HPLC: Any identified impurity, each [3, 4]: 0.07% | Related substances by HPLC: Any unidentified impurity [3, 4]: <0.05% | Related substances by HPLC: Dezacetyl impurity [3, 4]: <0.05% | Related substances by HPLC: Sum of impurities [3, 4]: 0.07% | Related substances by HPLC: Any identified impurity, each [3, 5]: <0.05% | Related substances by HPLC: Any unidentified impurity [3, 5]: <0.05% | Related substances by HPLC: Dezacetyl impurity [3, 5]: <0.05% | Related substances by HPLC: Sum of impurities [3, 5]: <0.05% | Related substances by HPLC: Any identified impurity, each [3, 6]: <0.05% | Related substances by HPLC: Any unidentified impurity [3, 6]: <0.05% | Related substances by HPLC: Dezacetyl impurity [3, 6]: <0.05% | Related substances by HPLC: Sum of impurities [3, 6]: <0.05% | Related substances by HPLC: Any identified impurity, each ([3]; 25 ± 2° C. 60 ± 5% RH, Initial): <0.05% | Related substances by HPLC: Any unidentified impurity ([3]; 25 ± 2° C. 60 ± 5% RH, Initial): <0.05% | Related substances by HPLC: Dezacetyl impurity ([3]; 25 ± 2° C. 60 ± 5% RH, Initial): <0.05% | Related substances by HPLC: Sum of impurities ([3]; 25 ± 2° C. 60 ± 5% RH, Initial): <0.05% | Related substances by HPLC: Any identified impurity, each ([3]; 40 ± 2° C. 75 ± 5% RH, 1 month): <0.05% | Related substances by HPLC: Any unidentified impurity ([3]; 40 ± 2° C. 75 ± 5% RH, 1 month): <0.05% | Related substances by HPLC: Dezacetyl impurity ([3]; 40 ± 2° C. 75 ± 5% RH, 1 month): <0.05% | Related substances by HPLC: Sum of impurities ([3]; 40 ± 2° C. 75 ± 5% RH, 1 month): <0.05% | Related substances by HPLC: Any identified impurity, each [3, 7]: 0.05% | Related substances by HPLC: Any unidentified impurity [3, 7]: <0.05% | Related substances by HPLC: Dezacetyl impurity [3, 7]: <0.05% | Related substances by HPLC: Sum of impurities [3, 7]: 0.05% | Related substances by HPLC: Any identified impurity, each [3, 8]: <0.05% | Related substances by HPLC: Any unidentified impurity [3, 8]: <0.05% | Related substances by HPLC: Dezacetyl impurity [3, 8]: <0.05% | Related substances by HPLC: Sum of impurities [3, 8]: <0.05% | Related substances by HPLC: Any identified impurity, each [3, 9]: <0.05% | Related substances by HPLC: Any unidentified impurity [3, 9]: <0.05% | Related substances by HPLC: Dezacetyl impurity [3, 9]: <0.05% | Related substances by HPLC: Sum of impurities [3, 9]: <0.05% | Related substances by HPLC: Any identified impurity, each ([3]; 40 ± 2° C. 75 ± 5% RH, Initial): <0.05% | Related substances by HPLC: Any unidentified impurity ([3]; 40 ± 2° C. 75 ± 5% RH, Initial): <0.05% | Related substances by HPLC: Dezacetyl impurity ([3]; 40 ± 2° C. 75 ± 5% RH, Initial): <0.05% | Related substances by HPLC: Sum of impurities ([3]; 40 ± 2° C. 75 ± 5% RH, Initial): <0.05% | Stability of the base per se on storage ([3]; storage period of 6 months): remains stable
